Measured values from PubChem BioAssay AID1259411 (Chemical Carcinogenesis Research Information System (CCRIS), 2018).
The source made the active and inactive calls. The rule behind the calls is not given here.

System: rodent carcinogenicity bioassays, tumor incidence
Assay: CCRIS carcinogenicity studies
Settings: Dose: 0, Dose: 0
Summary of the method: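 Archive of carcinogenicity, mutagenicity, tumor promotion and tumor inhibition results drawn from journals, NCI reports and other sources, expert-reviewed; covers 1985-2011 and is no longer updated.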

Measured: carcinogen call

ClCC(Cl)CCl
active: Species: GUPPIE, Strain/Sex: FEMALE, Route: AQUARIUM WATER, 4.5, 9, 18 MG/L FOR 9 MO THEN IN CLEAN WATER FOR 7 MO (STUDY DURATION: 16 MO), 4.5, 9, 18 MG/L FOR 9 MO THEN IN CLEAN WATER FOR 7 MO (STUDY DURATION: 16 MO), Tumor Site: Type of Lesion: LIVER: CHOLANGIOCARCINOMA, HEPATOCELLULAR ADENOMA OR CARCINOMA active; positive | Species: GUPPIE, Strain/Sex: FEMALE, Route: AQUARIUM WATER, 4.5, 9, 18 MG/L FOR 16 MO (STUDY DURATION: 16 MO), 4.5, 9, 18 MG/L FOR 16 MO (STUDY DURATION: 16 MO), Tumor Site: Type of Lesion: LIVER: HEPATOCELLULAR ADENOMA OR CARCINOMA, CHOLANGIOCARCINOMA active; positive | Species: GUPPIE, Strain/Sex: MALE, Route: AQUARIUM WATER, 4.5, 9, 18 MG/L FOR 9 MO THEN IN CLEAN WATER FOR 7 MO (STUDY DURATION: 16 MO), 4.5, 9, 18 MG/L FOR 9 MO THEN IN CLEAN WATER FOR 7 MO (STUDY DURATION: 16 MO), Tumor Site: Type of Lesion: LIVER: HEPATOCELLULAR ADENOMA OR CARCINOMA active; positive | Species: GUPPIE, Strain/Sex: MALE, Route: AQUARIUM WATER, 4.5, 9, 18 MG/L FOR 16 MO (STUDY DURATION: 16 MO), 4.5, 9, 18 MG/L FOR 16 MO (STUDY DURATION: 16 MO), Tumor Site: Type of Lesion: LIVER: HEPATOCELLULAR ADENOMA OR CARCINOMA active; positive | Species: MEDAKA, Strain/Sex: FEMALE, Route: AQUARIUM WATER, 4.5, 9, 18 MG/L FOR 9 MO THEN IN CLEAN WATER FOR 4 MO (STUDY DURATION: 13 MO), 4.5, 9, 18 MG/L FOR 9 MO THEN IN CLEAN WATER FOR 4 MO (STUDY DURATION: 13 MO), Tumor Site: Type of Lesion: LIVER: CHOLANGIOCARCINOMA, HEPATOCELLULAR ADENOMA OR CARCINOMA, GALL BLADDER: ADENOMA active; positive | Species: MEDAKA, Strain/Sex: FEMALE, Route: AQUARIUM WATER, 4.5, 9, 18 MG/L FOR 13 MO (STUDY DURATION: 13 MO), 4.5, 9, 18 MG/L FOR 13 MO (STUDY DURATION: 13 MO), Tumor Site: Type of Lesion: LIVER: CHOLANGIOCARCINOMA, HEPATOCELLULAR ADENOMA OR CARCINOMA, HEPATOCHOLANGIOCARCINOMA, GALL BLADDER: ADENOMA active; positive | Species: MEDAKA, Strain/Sex: MALE, Route: AQUARIUM WATER, 4.5, 9, 18 MG/L FOR 9 MO THEN IN CLEAN WATER FOR 4 MO (STUDY DURATION: 13 MO), 4.5, 9, 18 MG/L FOR 9 MO THEN IN CLEAN WATER FOR 4 MO (STUDY DURATION: 13 MO), Tumor Site: Type of Lesion: LIVER: CHOLANGIOCARCINOMA, HEPATOCELLULAR ADENOMA OR CARCINOMA, GALL BLADDER: ADENOMA active; positive | Species: MEDAKA, Strain/Sex: MALE, Route: AQUARIUM WATER, 4.5, 9, 18 MG/L FOR 13 MO (STUDY DURATION: 13 MO), 4.5, 9, 18 MG/L FOR 13 MO (STUDY DURATION: 13 MO), Tumor Site: Type of Lesion: LIVER: CHOLANGIOCARCINOMA, HEPATOCELLULAR ADENOMA OR CARCINOMA, GALL BLADDER: ADENOMA, HEPATOCHOLANGIOCARCINOMA active; positive | Species: MOUSE, Strain/Sex: B6C3F1/FEMALE, Route: GAVAGE, 6, 20, 60 MG/KG BW IN CORN OIL 5 D/WK FOR 104 WK (STUDY DURATION: 2 YR), 6, 20, 60 MG/KG BW IN CORN OIL 5 D/WK FOR 104 WK (STUDY DURATION: 2 YR), Tumor Site: Type of Lesion: HARDERIAN GLAND: ADENOMA, LIVER: HEPATOCELLULAR ADENOMA, PHARYNX: SQUAMOUS CELL CARCINOMA, FORESTOMACH: SQUAMOUS CELL PA, Tumor Site: Type of Lesion: HARDERIAN GLAND: ADENOMA, LIVER: HEPATOCELLULAR ADENOMA, PHARYNX: SQUAMOUS CELL CARCINOMA, FORESTOMACH: SQUAMOUS CELL PA active; positive | Species: MOUSE, Strain/Sex: B6C3F1/MALE, Route: GAVAGE, 6, 20, 60 MG/KG BW IN CORN OIL 5 D/WK FOR 104 WK (STUDY DURATION: 2 YR), 6, 20, 60 MG/KG BW IN CORN OIL 5 D/WK FOR 104 WK (STUDY DURATION: 2 YR), Tumor Site: Type of Lesion: HARDERIAN GLAND: ADENOMA, LIVER: HEPATOCELLULAR ADENOMA, FORESTOMACH: SQUAMOUS CELL PAPILLOMA, SQUAMOUS CELL CARCINOMA, Tumor Site: Type of Lesion: HARDERIAN GLAND: ADENOMA, LIVER: HEPATOCELLULAR ADENOMA, FORESTOMACH: SQUAMOUS CELL PAPILLOMA, SQUAMOUS CELL CARCINOMA active; positive | Species: RAT, Strain/Sex: F344/FEMALE, Route: GAVAGE, 3, 10, 30 MG/KG BW IN CORN OIL 5 D/WK FOR 104 WK (STUDY DURATION: 2 YR), 3, 10, 30 MG/KG BW IN CORN OIL 5 D/WK FOR 104 WK (STUDY DURATION: 2 YR), Tumor Site: Type of Lesion: CLITORAL GLAND: ADENOMA, CARCINOMA, MAMMARY GLAND: CARCINOMA, PHARYNX: SQUAMOUS CELL CARCINOMA, FORESTOMACH: SQUAMOUS CE, Tumor Site: Type of Lesion: CLITORAL GLAND: ADENOMA, CARCINOMA, MAMMARY GLAND: CARCINOMA, PHARYNX: SQUAMOUS CELL CARCINOMA, FORESTOMACH: SQUAMOUS CE active; positive | Species: RAT, Strain/Sex: F344/MALE, Route: GAVAGE, 3, 10, 30 MG/KG BW IN CORN OIL 5 D/WK FOR 104 WK (STUDY DURATION: 2 YR), 3, 10, 30 MG/KG BW IN CORN OIL 5 D/WK FOR 104 WK (STUDY DURATION: 2 YR), Tumor Site: Type of Lesion: KIDNEY (RENAL TUBULE): ADENOMA, PANCREAS: ADENOMA, PHARYNX: SQUAMOUS CELL CARCINOMA, PREPUTIAL GLAND: ADENOMA, CARCINOMA, Tumor Site: Type of Lesion: KIDNEY (RENAL TUBULE): ADENOMA, PANCREAS: ADENOMA, PHARYNX: SQUAMOUS CELL CARCINOMA, PREPUTIAL GLAND: ADENOMA, CARCINOMA active; positive
